# Test results as given in patent publication US8227620B2, “Pharmaceutical compounds” (Neuroscienze Pharmaness S.C. A.R.L., priority 2004, dated 2012).
# Assays:
# CB2 receptors = molecular target: T1, CB2 receptors (Rattus norvegicus, UniProt Q9QZN9); experiment: Radioreceptor binding, [3H]-CP-55,940 displacement, rat spleen membranes; settings: 1 nM [3H]-CP55,940
# T1 construct: the brain in toto (cerebellum excluded) and the spleen were rapidely dissected; from tissue; host or cells: rat spleen membranes
# T1 sequence (Q9QZN9 1-360): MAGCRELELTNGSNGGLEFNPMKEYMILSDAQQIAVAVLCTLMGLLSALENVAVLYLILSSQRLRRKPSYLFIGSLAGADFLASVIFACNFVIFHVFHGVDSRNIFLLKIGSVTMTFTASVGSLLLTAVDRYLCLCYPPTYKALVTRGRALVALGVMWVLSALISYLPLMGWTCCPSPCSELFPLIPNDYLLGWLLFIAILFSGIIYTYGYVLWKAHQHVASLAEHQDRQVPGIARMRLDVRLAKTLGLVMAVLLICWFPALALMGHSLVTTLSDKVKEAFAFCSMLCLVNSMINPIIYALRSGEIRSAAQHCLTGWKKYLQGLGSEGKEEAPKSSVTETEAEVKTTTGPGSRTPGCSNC
# Excerpt: (§1) The receptorial binding technique allows indeed to establish if and with what affinity and specificity a determined compound binds itself to a particular receptor. To evaluate the affinity of a determined compound towards a particular receptor, a particular preparation of the tissue wherein the receptors are present is used and the tested compound is made to compete with another compound, treated so as to make it radioactive and of which the affinity for the receptor is known. […] The reading of the radioactivity present in the receptor-compound complex allows furthermore to precisely calculate the compound amount bound to the receptor. By this method it is therefore possible to rapidely identify the affinity of a new compound towards a specific receptor and thus to make predictions on its pharmacological activity. By repeating the same experimental scheme it is possible to evaluate the affinity of the compound towards other kinds of receptors and thus establish the specificity degree.
# (§2) Food and water were available ad libitum.
# (§3) The animals were sacrificed by cervical dislocation, the brain in toto (cerebellum excluded) and the spleen were rapidely dissected and maintained in ice.
# (§4) The tissue was homogenized in 15 volumes (weight/volume) of TME buffer (50 mM Tris, 1 mM EDTA e 3 mM MgCl2, pH 7.4) by an Ultra-Turrax and centrifuged for 10 minutes at 1086×g in a centrifuge cooled at 4° C. The resulting supernatant was centrifuged at 45,000×g for 30 min at 4° C. by using a Beckman SW41 rotor and the final pellet was resuspended in 50 volumes of TME.
# (§5) The obtained membranes (50-80 μg of proteins) were incubated in the presence of 1 nM di [^3H]-CP55,940 for 1 h at 30° C. in a final volume of 0.5 ml of TME buffer containing 5 mg/ml of bovine serum albumin (BSA). The non specific binding was measured in the presence of CP55,940 at the 1 μM concentration. […]
# (§6) The radioactivity present in the filters was measured by a scintillator spectrophotometer (Tricarb 2100, Packard, Meridien, USA). […]
# CB1 receptors [1] = molecular target: T2, CB1 receptors (Rattus norvegicus, UniProt P20272); experiment: Antagonism of WIN 55,212-2 induced hypothermia in vivo; settings: for capability to pass the hemato-encephalic barrier: concluded from the hypothermia test; for antagonism of the body temperature reduction induced by WIN 55,212-2: i.p., compound 30 minutes before WIN 55,212-2 (3 mg/kg)
# Experimental: The rectal temperature in the rat was determined by an electronic thermometer inserted at a 2 mm depth. The measurements were carried out on rats acclimated for one hour. The rectal temperature was determined before and after (from 30 to 120 minutes) the i.p. administration of the compound to be tested.
# Each test was repeated on ten animals; the reported results are the average of the results obtained with the ten animals.
# CB1 receptors [2] = molecular target: T2, CB1 receptors; experiment: Radioreceptor binding, [3H]-CP-55,940 displacement, rat brain membranes; set-up: from tissue; host or cells: whole animal (rat), central CB1 receptors of the hypothalamus; settings: 1 nM [3H]-CP55,940
# Excerpt: as §1, §2, §3, §4, §5, §6
# CB1 receptors [3] = molecular target: T2, CB1 receptors; experiment: Hypothermia test in vivo, compound alone (rectal temperature); set-up: from tissue; host or cells: whole animal (rat), central CB1 receptors of the hypothalamus; settings: i.p., doses 0.1, 0.5, 1.0, 3.0, 6.0 mg/kg, versus physiological solution (38° C.)
# Experimental: The test was carried out with the compound of the Example 3.1c. Aqueous samples were used wherein the compound of the Example 3.1c was dispersed in water with three drops of Tween 80. Following the above procedure, treatments were carried out with doses (mg compound/kg of body weight) respectively of 0.1; 0.5; 1.0; 3.0; 6.0.
# [4] = WIN 55,212-2 (3 mg/kg) + compound 0.1 mg/kg, 0 min from WIN administration
# [5] = WIN 55,212-2 (3 mg/kg) + compound 0.1 mg/kg, 15 min
# [6] = WIN 55,212-2 (3 mg/kg) + compound 0.1 mg/kg, 30 min
# [7] = WIN 55,212-2 (3 mg/kg) + compound 0.1 mg/kg, 60 min
# [8] = WIN 55,212-2 (3 mg/kg) + compound 0.1 mg/kg, 90 min
# [9] = WIN 55,212-2 (3 mg/kg) + compound 0.1 mg/kg, 120 min
# [10] = WIN 55,212-2 (3 mg/kg) + compound 0.5 mg/kg, 0 min from WIN administration
# [11] = WIN 55,212-2 (3 mg/kg) + compound 0.5 mg/kg, 15 min
# [12] = WIN 55,212-2 (3 mg/kg) + compound 0.5 mg/kg, 30 min
# [13] = WIN 55,212-2 (3 mg/kg) + compound 0.5 mg/kg, 60 min
# [14] = WIN 55,212-2 (3 mg/kg) + compound 0.5 mg/kg, 90 min
# [15] = WIN 55,212-2 (3 mg/kg) + compound 0.5 mg/kg, 120 min
# [16] = WIN 55,212-2 (3 mg/kg) + compound 1.0 mg/kg, 0 min from WIN administration
# [17] = WIN 55,212-2 (3 mg/kg) + compound 1.0 mg/kg, 15 min
# [18] = WIN 55,212-2 (3 mg/kg) + compound 1.0 mg/kg, 30 min
# [19] = WIN 55,212-2 (3 mg/kg) + compound 1.0 mg/kg, 60 min
# [20] = WIN 55,212-2 (3 mg/kg) + compound 1.0 mg/kg, 90 min
# [21] = WIN 55,212-2 (3 mg/kg) + compound 1.0 mg/kg, 120 min
# [22] = WIN 55,212-2 (3 mg/kg) + compound 3.0 mg/kg, 0 min from WIN administration
# [23] = WIN 55,212-2 (3 mg/kg) + compound 3.0 mg/kg, 15 min
# [24] = WIN 55,212-2 (3 mg/kg) + compound 3.0 mg/kg, 30 min
# [25] = WIN 55,212-2 (3 mg/kg) + compound 3.0 mg/kg, 60 min
# [26] = WIN 55,212-2 (3 mg/kg) + compound 3.0 mg/kg, 90 min
# [27] = WIN 55,212-2 (3 mg/kg) + compound 3.0 mg/kg, 120 min
# [28] = WIN 55,212-2 (3 mg/kg) + compound 6.0 mg/kg, 0 min from WIN administration
# [29] = WIN 55,212-2 (3 mg/kg) + compound 6.0 mg/kg, 15 min
# [30] = WIN 55,212-2 (3 mg/kg) + compound 6.0 mg/kg, 30 min
# [31] = WIN 55,212-2 (3 mg/kg) + compound 6.0 mg/kg, 60 min
# [32] = WIN 55,212-2 (3 mg/kg) + compound 6.0 mg/kg, 90 min
# [33] = WIN 55,212-2 (3 mg/kg) + compound 6.0 mg/kg, 120 min
# T2 sequence (P20272 whole entry): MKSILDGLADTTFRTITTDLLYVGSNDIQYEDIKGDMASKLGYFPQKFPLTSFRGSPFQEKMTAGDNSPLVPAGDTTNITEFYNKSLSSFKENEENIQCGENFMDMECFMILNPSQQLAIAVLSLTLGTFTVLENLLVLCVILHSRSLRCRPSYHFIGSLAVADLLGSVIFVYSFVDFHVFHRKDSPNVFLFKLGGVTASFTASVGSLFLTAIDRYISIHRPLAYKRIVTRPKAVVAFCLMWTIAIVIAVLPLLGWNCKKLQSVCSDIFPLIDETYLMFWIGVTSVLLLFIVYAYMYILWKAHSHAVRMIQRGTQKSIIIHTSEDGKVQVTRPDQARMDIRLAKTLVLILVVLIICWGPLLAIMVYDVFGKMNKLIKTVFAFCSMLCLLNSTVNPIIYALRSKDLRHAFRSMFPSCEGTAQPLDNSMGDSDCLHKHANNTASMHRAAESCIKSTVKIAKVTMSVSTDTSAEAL
molecule,measurement,setting,value
"N-pyrrolidinyl-5-(5-Chloro-thiophen-2-yl)-1-(2,4′-dichloro-phenyl)-4-methyl-1H-pyrazol-3-carboxamide [Example 3.1d]",Ki,CB2 receptors,699 ± 21 nM
same,Body temperature (° C.),CB1 receptors [1]; [4],38.1 °C
same,Body temperature (° C.),CB1 receptors [1]; [5],35.3 °C
same,Body temperature (° C.),CB1 receptors [1]; [6],33.8 °C
same,Body temperature (° C.),CB1 receptors [1]; [7],35.6 °C
same,Body temperature (° C.),CB1 receptors [1]; [8],36.5 °C
same,Body temperature (° C.),CB1 receptors [1]; [9],37.2 °C
same,Body temperature (° C.),CB1 receptors [1]; [10],38.1 °C
same,Body temperature (° C.),CB1 receptors [1]; [11],35.7 °C
same,Body temperature (° C.),CB1 receptors [1]; [12],34.4 °C
same,Body temperature (° C.),CB1 receptors [1]; [13],35.0 °C
same,Body temperature (° C.),CB1 receptors [1]; [14],36.3 °C
same,Body temperature (° C.),CB1 receptors [1]; [15],37.2 °C
same,Body temperature (° C.),CB1 receptors [1]; [16],37.9 °C
same,Body temperature (° C.),CB1 receptors [1]; [17],36.5 °C
same,Body temperature (° C.),CB1 receptors [1]; [18],34.7 °C
same,Body temperature (° C.),CB1 receptors [1]; [19],35.8 °C
same,Body temperature (° C.),CB1 receptors [1]; [20],36.7 °C
same,Body temperature (° C.),CB1 receptors [1]; [21],37.1 °C
same,Body temperature (° C.),CB1 receptors [1]; [22],38.4 °C
same,Body temperature (° C.),CB1 receptors [1]; [23],37.0 °C
same,Body temperature (° C.),CB1 receptors [1]; [24],36.8 °C
same,Body temperature (° C.),CB1 receptors [1]; [25],37.3 °C
same,Body temperature (° C.),CB1 receptors [1]; [26],37.7 °C
same,Body temperature (° C.),CB1 receptors [1]; [27],37.6 °C
same,Body temperature (° C.),CB1 receptors [1]; [28],37.8 °C
same,Body temperature (° C.),CB1 receptors [1]; [29],36.9 °C
same,Body temperature (° C.),CB1 receptors [1]; [30],36.9 °C
same,Body temperature (° C.),CB1 receptors [1]; [31],37.2 °C
same,Body temperature (° C.),CB1 receptors [1]; [32],37.8 °C
same,Body temperature (° C.),CB1 receptors [1]; [33],37.9 °C
same,capability to pass the hemato-encephalic barrier,CB1 receptors [1],able to pass the hemato-encephalic barrier
same,"antagonism of the body temperature reduction induced by WIN 55,212-2",CB1 receptors [1],"able to antagonize the effect of WIN 55,212-2"
same,Ki,CB1 receptors [2],63 ± 7.2 nM
same,effect of the compound as such on body temperature,CB1 receptors [3],does not cause as such any effect on the body temperature
"Cc1c(C(=O)NN2CCCCC2)nn(-c2ccc(Cl)cc2Cl)c1-c1ccc(Cl)s1 [Example 3.1b, N-piperidinyl-5-(5-Chloro-thiophen-2-yl)-1-(2′,4′-dichloro-phenyl)-4-methyl-1H-pyrazol-3-carboxamide]",Ki,CB2 receptors,476 ± 3 nM
same,Body temperature (° C.),CB1 receptors [1]; [4],38.5 °C
same,Body temperature (° C.),CB1 receptors [1]; [5],35.1 °C
same,Body temperature (° C.),CB1 receptors [1]; [6],33.8 °C
same,Body temperature (° C.),CB1 receptors [1]; [7],35.3 °C
same,Body temperature (° C.),CB1 receptors [1]; [8],36.9 °C
same,Body temperature (° C.),CB1 receptors [1]; [9],37.3 °C
same,Body temperature (° C.),CB1 receptors [1]; [10],38.1 °C
same,Body temperature (° C.),CB1 receptors [1]; [11],35.8 °C
same,Body temperature (° C.),CB1 receptors [1]; [12],34.5 °C
same,Body temperature (° C.),CB1 receptors [1]; [13],35.7 °C
same,Body temperature (° C.),CB1 receptors [1]; [14],36.7 °C
same,Body temperature (° C.),CB1 receptors [1]; [15],37.3 °C
same,Body temperature (° C.),CB1 receptors [1]; [16],38.3 °C
same,Body temperature (° C.),CB1 receptors [1]; [17],36.1 °C
same,Body temperature (° C.),CB1 receptors [1]; [18],35.7 °C
same,Body temperature (° C.),CB1 receptors [1]; [19],36.8 °C
same,Body temperature (° C.),CB1 receptors [1]; [20],37.8 °C
same,Body temperature (° C.),CB1 receptors [1]; [21],37.9 °C
same,Body temperature (° C.),CB1 receptors [1]; [22],38.4 °C
same,Body temperature (° C.),CB1 receptors [1]; [23],36.1 °C
same,Body temperature (° C.),CB1 receptors [1]; [24],35.7 °C
same,Body temperature (° C.),CB1 receptors [1]; [25],36.8 °C
same,Body temperature (° C.),CB1 receptors [1]; [26],37.8 °C
same,Body temperature (° C.),CB1 receptors [1]; [27],37.9 °C
same,Body temperature (° C.),CB1 receptors [1]; [28],38.6 °C
same,Body temperature (° C.),CB1 receptors [1]; [29],37.7 °C
same,Body temperature (° C.),CB1 receptors [1]; [30],37.9 °C
same,Body temperature (° C.),CB1 receptors [1]; [31],37.9 °C
same,Body temperature (° C.),CB1 receptors [1]; [32],38.2 °C
same,Body temperature (° C.),CB1 receptors [1]; [33],37.9 °C
same,capability to pass the hemato-encephalic barrier,CB1 receptors [1],capable to pass the hemato-encephalic barrier
same,CB1 antagonist behaviour in vivo,CB1 receptors [1]; hypothermia test,shows a CB1 antagonist behaviour
same,"antagonism of the body temperature reduction induced by WIN 55,212-2",CB1 receptors [1],"able to antagonize the effect of WIN 55,212-2"
same,Ki,CB1 receptors [2],35 ± 2.5 nM
same,effect of the compound as such on body temperature,CB1 receptors [3],does not cause as such any effect on the body temperature
